# Entries after “also recorded” stand apart in the source; their conditions may differ. Like-named read-outs stand apart in the source and are kept apart here.
# Columns and labels:
# [1] = physchem
# [2] = not given; remark: listed apart in the source
# [3] = test system: DosRST signaling, CDC1551 (hspX′::GFP); experiment: microbe, parasite or virus in culture; assay type: cell-based; settings: Mycobacterium tuberculosis; 500 nM artemisinin alone
# [4] = test system: DosR regulated genes dosR, hspX, tgs1; assay type: cell-based; settings: maximum inhibition
# [5] = biological target: DosR (Mycobacterium tuberculosis, UniProt P9WMF9); experiment: Electrophoretic mobility shift assay (EMSA), DosR binding of hspX promoter DNA; settings: 1-80 μM, 2 μM DosR
# [6] = test system: DosRST pathway, CDC1551 (hspX′::GFP) reporter strain; experiment: microbe, parasite or virus in culture; assay type: cell-based
# [7] = test system: DosR-regulated genes hspX and tgs1; assay type: cell-based; settings: 2 h induction
# Sequence of DosR (P9WMF9 whole entry, looked up): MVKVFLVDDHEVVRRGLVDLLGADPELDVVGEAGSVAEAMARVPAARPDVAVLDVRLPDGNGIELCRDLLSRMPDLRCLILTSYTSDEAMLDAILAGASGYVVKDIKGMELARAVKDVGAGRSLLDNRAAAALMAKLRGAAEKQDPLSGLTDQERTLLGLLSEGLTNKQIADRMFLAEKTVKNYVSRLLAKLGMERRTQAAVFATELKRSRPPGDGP
smiles,measurement,setting,value
"CC(C)(C)c1ccc(NC(=O)Nc2ccno2)cc1 [MSU-41442, 1-(4-tert-butylphenyl)-3-(1,2-oxazol-5-yl)urea]",solubility,[1],> 100 µM
same,melting point,,163 °C
"O=C(Nc1ccc(-c2ccccc2)cc1)Nc1ccno1 [MSU-41443, 1-{[1,1′-biphenyl]-4-yl}-3-(1,2-oxazol-5-yl)urea]",solubility,[1],14 µM
same,melting point,,193 °C
"O=C(NCc1ccccc1)Nc1ccno1 [MSU-41462, 1-benzyl-3-(1,2-oxazol-5-yl)urea]",melting point,,128 to 130 °C
"O=C(Nc1ccc(C(F)(F)F)cc1)Nc1ccno1 [MSU-41463, 3-(1,2-oxazol-5-yl)-1-[4-(trifluoromethyl)phenyl]urea]",melting point,,178 °C
same,Microsomes (% remaining @ 30 minutes),[2]; 30 minutes,84 % remaining
"O=C(Nc1ccc(Br)cc1)Nc1ccno1 [MSU-41464, 1-(4-bromophenyl)-3-(1,2-oxazol-5-yl)urea]",melting point,,183 to 184 °C
same,Microsomes (% remaining @ 30 minutes),[2]; 30 minutes,109% remaining
"COC(=O)c1ccc(NC(=O)Nc2ccno2)cc1 [MSU-41465, methyl 4-{[(1,2-oxazol-5-yl)carbamoyl]amino}benzoate]",melting point,,194 °C
same,Microsomes (% remaining @ 30 minutes),"[2]; microsomes, 0.5 h",73 % remaining
"CC(C)CNC(=O)Nc1ccno1 [MSU-41542, 3-(2-methylpropyl)-1-(1,2-oxazol-5-yl)urea]",melting point,,187 °C
"O=C(Nc1ccc(COc2ccccc2)cc1)Nc1ccno1 [MSU-41545, 3-(1,2-oxazol-5-yl)-1-[4-(phenoxymethyl)phenyl]urea]",melting point,,164 °C
"O=C(Nc1ccno1)NC1CCCC1 [MSU-41546, 1-cyclopentyl-3-(1,2-oxazol-5-yl)urea]",melting point,,182 °C
"O=C(Nc1ccno1)NC1CCCCC1 [MSU-42002, 1-cyclohexyl-3-(1,2-oxazol-5-yl)urea]",melting point,,180 °C
"O=C(Nc1cccc(Br)c1)Nc1ccno1 [MSU-42003, 1-(3-bromophenyl)-3-(1,2-oxazol-5-yl)urea]",melting point,,157 °C
"O=C(NCCc1ccccc1)Nc1ccno1 [MSU-42004, 3-(1,2-oxazol-5-yl)-1-(2-phenylethyl)urea]",melting point,,165 °C
"C[C@@H]1CC[C@H]2[C@@H](C)C(=O)O[C@@H]3O[C@@]4(C)CC[C@@H]1[C@]32OO4 [artemisinin, reference compound]",inhibition at 0.5 µM,[3],40%
same,maximum inhibition of hspX,[4],51 fold
same,maximum inhibition of tgs1,[4],166 fold
"O=C(O)CCCN1C(=O)c2cccc3cccc(c23)C1=O [virstatin, reference compound]",impact on DosR binding of DNA (words),[5],no impact on DosR binding of DNA
same,impact on DosR binding of DNA (words),[5]; listed as Virstatin,did not impact DosR binding of promoter DNA
same,activity in the whole cell Mtb reporter assay,[6],did not have any impact on DosRST signaling; also recorded: nor did virstatin inhibit the DosRST pathway; also recorded: not effect
"O=C1O[C@H]([C@@H](O)CO)C(O)=C1O [vitamin C, reference compound]",induction of hspX by the inducer,[7],2162 fold
same,induction of tgs1 by the inducer,[7],58 fold

# Reference: patent US11617740B2, “Chemical inhibitors of Mycobacterium tuberculosis DosRST signaling and persistence” (priority 2017, dated 2023)
